Laboratory results published in article PMC4078514, “A Bombesin-Shepherdin Radioconjugate Designed for Combined Extra- and Intracellular Targeting” (Pharmaceuticals, 2014).

How the values were obtained:
[1] = tested on: GRP-r overexpressing PC-3 cells; assay: Internalization assay in PC-3 cells; type: cell-based, human; settings: 0.25 pmol, 1.5-2.0 kBq/well, within 30-60 min, percentage of applied dose normalized to 10^6 cells, n = 2-3 in triplicates, approximate
Protocol: Cell culturing of human prostate adenocarcinoma (PC-3) cells and in vitro assays (internalization, receptor saturation binding, and externalization) were performed as previously described and are thus described only in brief.
For the determination of cellular uptake, PC-3 cells were incubated with the radiolabeled peptides [^99mTc(CO)3(L)] (L = 14–16; 0.25 pmol; 1.5–2.0 kBq/well) for different time points to allow binding and internalization. Non-specific receptor binding and internalization was determined by incubating the cells with excess of natural bombesin(1–14) as a receptor blocking agent. At each time point, the supernatant was collected, representing the free radiopeptide fraction. The cell surface receptor bound fraction was obtained by treating the cells with an acidic saline glycine buffer (100 mM NaCl, 50 mM glycine, pH 2.8; 2 times for 5 min, on ice). The internalized fraction was determined by cell lysis with 1 M NaOH (10 min). Fractions of free, receptor-bound, and internalized radiopeptide were radiometrically measured in the gamma counter and calculated as percentage of applied dose normalized to 10^6 cells for all time points (n = 2–3 in triplicates, reported by means ± SD). […]

[2] = LogD determination, shake flask method (n-octanol/PBS); type: physicochemical; settings: shake-flask n-octanol/PBS pH 7.4 (1:1, 1 mL, pre-saturated); 10 µL (1 µM) radiolabeled peptide; vortexed 1 min, centrifuged 3,000 rpm 10 min; gamma counter read-out; 2-3 experiments each in quintets, mean ± SD
Protocol: The hydrophilicity of the radiolabeled peptides 12–16 was evaluated by determination of their partition coefficient between n-octanol and phosphate buffered saline (PBS, pH 7.4) using the shake flask method. In brief, 10 µL (1 µM) of radiolabeled peptides 12–16 were added to a pre-saturated solution of n-octanol and PBS (1:1, 1 mL) and the tubes were vortexed (1 min) and centrifuged (3,000 rpm, 10 min). Aliquots of 100 µL of each phase were radiometrically measured in a gamma counter and the logD values were calculated by the logarithm of the ratio between the radioactive counts in the octanol fraction and the radioactive counts in the PBS fraction. The experiment was performed 2–3 times, each in quintets, and results are reported by mean values ± standard deviation (SD).

Hsp90 = settings: reported high affinity; read-out: affinity towards Hsp90; cited from earlier work

| Molecule | applied radioactivity internalized [1] | logD [2] | Kd (Hsp90) |
| --- | --- | --- | --- |
| CCCC[C@H](NC(=O)[C@H](CC(C)C)NC(=O)[C@H](Cc1c[nH]cn1)NC(=O)CNC(=O)[C@@H](NC(=O)[C@H](C)NC(=O)[C@H](Cc1c[nH]c2ccccc12)NC(=O)[C@H](CCC(N)=O)NC(=O)CCNC(=O)CCNC(=O)CCNC(=O)Cn1cc(CN[C@@H](CCCCNC(C)=O)C(=O)O)nn1)C(C)C)C(N)=O [[^99mTc(CO)3(16)], metal not drawn] | 25%–30% | -0.44 ± 0.07 |  |
| KHSSG [shepherdin(79–83)] |  |  | 80 nM |
